Laboratory results taken from US20130210633A1, “METHOD FOR REDUCING WATER STRESS IN PLANTS” (SUMITOMO CHEMICAL COMPANY, LIMITED, priority 2010, published 2013).
Structures can show the parent of a compound that is named as a salt.

Test system: rice (cultivar: Nipponbare)
Assay: Evaluation test for reduction of drought stress by rice seed treatment (plant weight)
Type: in vivo
Settings: with drought stress conditions; for Ratio to non-treated group: fresh weight of above-ground part; for Fresh weight of the above-ground part: seed treatment, average of 3 repetitions
Procedure: Evaluation Test for Reduction of Drought Stress by Rice Seed Treatment (Plant Weight) A Blank slurry solution containing 5% (V/V) color coat red (Becker Underwood, Inc.), 5% (V/V) CF-Clear (Becker Underwood, Inc.) and 0.4% Maxim XL (Syngenta) was prepared. A sodium salt of the compound “A” was dissolved in the Blank slurry to obtain a slurry solution containing the sodium salt of the compound “A” in a concentration of 333 to 10,000 ppm. In a 50-ml centrifuge tube made of a plastic, 300 μl of the above slurry solution was added to 10 g of rice seeds (cultivar: Nipponbare), followed by stirring for 3 to 5 minutes and further drying of the seeds. As a control, seeds treated by using the Blank slurry in place of the above slurry solution were used as seeds for a non-treated group. On wells of a 406-well plug plate, a filter paper was placed and rice seeds subjected to the above seed treatment were sown on the filter paper. Using a two-fold diluted Kimura B water culture solution (Plant Science 119: 39-47 (1996)), cultivation was performed for 14 days under the conditions of a temperature of 28° C./23° C. (day/night), an illuminance of 8,500 1× and a day length of 12 hours to obtain test plants. Test plants (each 5 seedlings) were placed in an empty 35 ml flat-bottomed test tube ([…]/manufactured by Sarstedt) and then left to stand for 2 days without being capped (this was used as a test group with the drought stress conditions). As a test group without the drought stress conditions, the test plants (each 5 seedlings) were placed in a centrifuge tube filled with 10 ml of a two-fold diluted Kimura B water culture solution, and then left to stand for 2 days without being capped. After that, the plants (each 5 seedlings) were transplanted to a plastic pot (N-71-130G, manufactured by TOKAN KOGYO CO., LTD.) filled with the field soil which had been subjected to a sterilization treatment and then cultivated for 14 days under the conditions of a temperature of 28° C./23° C. (day/night), an illuminance of 8,500 1× and a day length of 12 hours while performing bottom-surface irrigation. After the drought stress treatment, the fresh weight of the above-ground part of the five individuals of test plants in each test group was collectively measured and an average of 3 repetitions of each test group was determined. As a result, the fresh weight of the above-ground part of the test group in the present invention was apparently large as compared with the control and drought stress was reduced.

O=C(O)CCC(=O)NCCc1ccccc1 [Compound A, Na salt, 4-oxo-4-(2-phenylethyl)aminobutyric acid]
Ratio to non-treated group (0.01 mg/g of seeds): 105% | Ratio to non-treated group (0.1 mg/g of seeds): 105% | Ratio to non-treated group (0.25 mg/g of seeds): 119% | Ratio to non-treated group (0.3 mg/g of seeds): 121% | Fresh weight of the above-ground part (amount of chemical 0.01 mg/g of seeds): 0.73 g/5 seedlings | Fresh weight of the above-ground part (amount of chemical 0.1 mg/g of seeds): 0.73 g/5 seedlings | Fresh weight of the above-ground part (amount of chemical 0.25 mg/g of seeds): 0.83 g/5 seedlings | Fresh weight of the above-ground part (amount of chemical 0.3 mg/g of seeds): 0.84 g/5 seedlings
